Results published in patent US20240183865A1, “METHOD FOR MEASURING AGGREGATING PROTEINS, METHOD FOR VISUALIZING AGGREGATION, AND KIT USED THEREFOR” (KANEKA CORPORATION, priority 2021, published 2024).

Target: T1, Aβ42 (Homo sapiens, UniProt P05067)
T1 construct: the amyloid β42 protein (Aβ42)
Assay: MSHTS quantification of aggregated Aβ with QD-Aβ40 in filtrate collected with Blocking 12
Assay type: biochemical
Conditions: Aβ42 and QD-Aβ40, 37° C. for 24 hours, SD value, read-out: RA concentration at which Aβ accounting for approximately 50% of the whole would not be aggregated
Method: Accordingly, whether or not it is possible to visualize aggregation of the amyloid β protein in such filtrate was examined. The quantum-dot-modified amyloid 40 protein (QD-Aβ40) was dissolved in the filtrate collected in Example 3, the solution was added to and mixed with the 1 mM Aβ42 solution, and the filtrate collected in Example 3 comprising 50 μM Aβ42 and 50 nM QD-Aβ40 was prepared. The 150 mM rosmarinic acid (RA) solution was diluted with the filtrate collected in Example 3 to five levels of concentration (3,000 μM, 600 μM, 120 μM, 24 μM, and 4.8 μM). Aβ42 and QD-A$40 were diluted with the filtrate collected in Example 3 to prepare a mixture of 50 μM Aβ42 and 50 nM QD-Aβ40. […] As a result, none of the solutions were sufficient in terms of sensitivity of SD values to perform quantitative analysis of aggregated Aβ (FIG. 4).
With the use of Blocking 12, accordingly, a 50 μM Aβ42 solution was prepared from the filtrate collected in the same manner as in Example 2, and QD-Aβ40 was diluted in the collected filtrate to adjust the concentration of QD-Aβ40 to 50 nM. […] These reaction solutions were incubated at 37° C. for 24 hours, aggregated Aβ was observed under a fluorescent microscope, and aggregated AD was quantified. […] It was found necessary that the sensitivity of the SD value be 60% or higher relative to that of PBS designated as 100% for quantification of aggregated AD.

T1 sequence (P05067 672-713 limits assumed): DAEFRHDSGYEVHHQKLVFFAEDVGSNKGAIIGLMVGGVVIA

O=C(/C=C/c1ccc(O)c(O)c1)O[C@H](Cc1ccc(O)c(O)c1)C(=O)O [RA, rosmarinic acid]
EC50: ≤ 46 µM
